The record followed here is patent US8664225B2, “1-[2-(2,4-dimethylphenylsulfanyl)-phenyl] piperazine as a compound with combined serotonin reuptake, 5-HT3 and 5-HT1A activity for the treatment of pain or residual symptoms in depression relating to sleep and cognition” (H. Lundbeck A/S, priority 2007, dated 2014).

For orientation: solubility means how much of the substance goes into solution per volume. High values mean a readily soluble substance, low ones a poorly soluble substance.

SMILES strings stand for the structures. Like-named read-outs stand apart in the source and are kept apart here. Where only a bound is given, the exact number is not on record here.

A short description of data set [1]: physchem. The conditions noted are these: water.
Data set [2] relates to rat. The experiment in a line: Chronic constriction nerve injury model. The class given is in vivo. The conditions noted are these: 7.9 mg/kg s.c., 60 minutes, FIG. 26. As for the experimental part: This model of neuropathic pain involves the application of four loose ligations around one sciatic nerve of the rat over a period of time to develop both hyperalgesia and allodynia. The effect of test compounds in this test is measured as the time to withdraw the paw upon a thermal stimuli.

The test system of data set [3] is Sprague-Dawley rats. The data set is described as follows: Contextual fear conditioning in rats. The class given is in vivo, rat. The conditions noted are these: 1, 5 and 10 mg/kg s.c. 1 h prior to acquisition, any dose tested. An excerpt: The compound administered in the present experiment was 1-[2-(2,4-dimethylphenylsulfanyl)phenyl]piperazine HBr salt.
We have studied the effect of the compound on acquisition, consolidation and recall of contextual fear conditioning in rats. In the fear conditioning paradigm animals learn to associate a neutral environment (context, the training chamber, CS) with an aversive experience (an electrical foot-shock, US). During re-exposure to the training chamber, animals express a freezing behaviour, which is taken as a direct measure of the fear-related memory [Pavlov J. Biol. Sci., 15, 177-182, 1980]. […] Neurosci., 106, 274-285, 1992].
Adult male Sprague-Dawley rats (weighing 250-300 g at time of training) from Charles River Laboratories, housed two per cage under a 12 h light/dark cycle, were used. Food and water were available ad libitum. […]
During the acquisition animals were allowed to freely explore the novel environment for a 1 min habituation period, which co-terminated with one inescapable foot-shock (unconditioned stimulus, US) through the electrifiable grid floor. […] Freezing behaviour was scored during the first 58 s (pre-shock acquisition; experimenter blinded to groups) to determine baseline-freezing responses to the context. […] Freezing behaviour was scored during the whole test period with the experimenter blinded to groups and presented as percent of total test period.

Data set [4] deals with extra-cellular levels of ACh. The data set is described as follows: Extracellular acetylcholine levels in brain of freely moving rats (microdialysis). The class given is in vivo, rat. The following applies: 2.5-10 mg/kg s.c. How it is done: The animals were administered 1-[2-(2,4-dimethylphenylsulfanyl)phenyl]piparazine, HBr salt.
Male Sprague-Dawley rats, initially weighing 275-300 g, were used. The animals were housed under a 12-hr light/dark cycle under controlled conditions for regular in-door temperature (21±2° C.) and humidity (55±5%) with food and tap water available ad libitum.
Rats were anaesthetised with hypnorm/dormicum (2 ml/kg) and intracerebral guide cannulas (CMA/12) were stereotaxically implanted into the brain, aiming at positioning the dialysis probe tip in the ventral hippocampus (co-ordinates: 5.6 mm posterior to bregma, lateral −5.0 mm, 7.0 mm ventral to dura) or in the prefrontal cortex (co-ordinates: 3.2 mm anterior to bregma; lateral, 0.8 mm; 4.0 mm ventral to dura). […] The body temperature of the animals was monitored by rectal probe and maintained at 37° C. […]
The compound dissolved in 10% HPbetaCD and injected subcutaneously (2.5-10 mg/kg). Doses are expressed as mg salt/kg body weight. […]
Concentration of acetylcholine (ACh) in the dialysates was analysed by means of HPLC with electrochemical detection using a mobile phase consisting of 100 mM disodium hydrogenphosphate, 2.0 mM octane sulfonic acid, 0.5 mM tetramethyl-ammonium chloride and 0.005% MB (ESA), pH 8.0. […] The latter was detected electrochemical by using a platinum electrode (Analytical cell: ESA, model 5040). […]

Data set [5] is described as follows: Hygroscopicity (water absorption at relative humidity). The class given is physicochemical. The source says:
Some compounds are hygroscopic, i.e. the absorb water when exposed to humidity. Hygroscopicity is generally regarded as an undesired property for compounds that are to be presented in a pharmaceutical formulation, in particular in a dry formulation, such as tablets. In one embodiment, the invention provides the use of crystals with low hygroscopicity. For oral dosage forms using crystalline active ingredients it is also beneficial if said crystals are well-defined. In the present context, the term “well-defined” in particular means that the stoichiometry is well-defined, i.e. that the ratio between the ions forming the salt is the ratio between small integers, such as 1:1, 1:2, 2:1, 1:1:1, etc. In one embodiment, the compound I forms well-defined crystals.

Data set [6] can be described thus: Solubility in water.

`Cc1ccc(Sc2ccccc2N2CCNCC2)c(C)c1.O=C(O)C(O)C(O)C(=O)O` [L-(+)-tartrate, 1-[2-(2,4-Dimethylphenylsulfanyl)-phenyl]piperazine (+)-tartaric acid] yielded a solubility in data set [1] of around 400 µg/mL.

As to `Br.Cc1ccc(Sc2ccccc2N2CCNCC2)c(C)c1` [alpha form of the hydrobromide, 1-[2-(2,4-Dimethylphenylsulfanyl)-phenyl]piperazine hydrobromide], the solubility in data set [1] turned out to be 2000 µg/mL.

Take `Br.Cc1ccc(Sc2ccccc2N2CCNCC2)c(C)c1` [compound I (HBr salt), 1-[2-(2,4-dimethylphenylsulfanyl)phenyl]piperazine HBr salt]: the “withdrawal latency following a thermal stimuli” value in data set [2] is “significant and dose-dependant withdrawal latency”. For the same compound, the “baseline freezing behaviour before the foot shock” value in data set [3] is on record as “does not affect”. In addition, in data set [4] (FIG. 19a), the “extra-cellular levels of ACh in prefrontal cortex” value is recorded as “significantly increased”. Further, the “extra-cellular levels of ACh in ventral hippocampus” value in data set [4] (FIG. 19b) is recorded as “significantly increased”.

As to `Cc1ccc(Sc2ccccc2N2CCNCC2)c(C)c1` [crystalline base, 1-[2-(2,4-Dimethylphenylsulfanyl)-phenyl]piperazine], the “hygroscopicity (in words)” value in data set [5] is “not hygroscopic”.

Take `Cc1ccc(Sc2ccccc2N2CCNCC2)c(C)c1` [fumarate, 1-[2-(2,4-Dimethylphenylsulfanyl)-phenyl]piperazine]: in data set [6], the solubility in water worked out at 0.4 mg/mL.

Take `Br.Cc1ccc(Sc2ccccc2N2CCNCC2)c(C)c1` [gamma form of the hydrobromide, 1-[2-(2,4-Dimethylphenylsulfanyl)-phenyl]piperazine hydrobromide]: in data set [5] (30% RH at room temperature), the “water absorbed at 30% RH” value is on record as “about 2%”.

For the compound `Br.Cc1ccc(Sc2ccccc2N2CCNCC2)c(C)c1` [hemi hydrate of the hydrobromide, 1-[2-(2,4-Dimethylphenylsulfanyl)-phenyl]piperazine hydrobromide], in data set [5] (room temperature and 95% RH), the water content result is listed as “about 3.7%”.

Take `Cc1ccc(Sc2ccccc2N2CCNCC2)c(C)c1.Cl` [hydrochloride monohydrate, 1-[2-(2,4-Dimethylphenylsulfanyl)-phenyl]piperazine HCl]: in data set [5], the “hygroscopicity (in words)” value was “does not absorb further amount of water”. Besides, the solubility in water result in data set [6] (HCl) is “about 2 mg/ml”.

`Cc1ccc(Sc2ccccc2N2CCNCC2)c(C)c1.Cl` [hydrochloride, 1-[2-(2,4-Dimethylphenylsulfanyl)-phenyl]piperazine hydrochloride] showed a solubility in data set [1] of 3000 µg/mL.

With `Cc1ccc(Sc2ccccc2N2CCNCC2)c(C)c1.O=C(O)/C=C\C(=O)O` [maleate, 1-[2-(2,4-Dimethylphenylsulfanyl)-phenyl]piperazine Maleate], the solubility in data set [1] is around 1000 µg/mL.

In data set [1], `CS(=O)(=O)O.Cc1ccc(Sc2ccccc2N2CCNCC2)c(C)c1` [mesylate, 1-[2-(2,4-Dimethylphenylsulfanyl)-phenyl]piperazine mesylate] gave a solubility above 45000 µg/mL.

Consider `Cc1ccc(Sc2ccccc2N2CCNCC2)c(C)c1.O=[N+]([O-])O` [nitrate, 1-[2-(2,4-Dimethylphenylsulfanyl)-phenyl]piperazine nitrate], for which the solubility in data set [1] was around 800 µg/mL.

As to `Cc1ccc(Sc2ccccc2N2CCNCC2)c(C)c1.O=P(O)(O)O` [phosphate, 1-[2-(2,4-Dimethylphenylsulfanyl)-phenyl]piperazine phosphate], the solubility in data set [1] was around 1000 µg/mL.

Consider `Cc1ccc(Sc2ccccc2N2CCNCC2)c(C)c1.O=S(=O)(O)O` [sulphate, 1-[2-(2,4-Dimethylphenylsulfanyl)-phenyl]piperazine sulphate], for which the solubility in data set [1] was around 100 µg/mL.
